Reference: PMC9696710 (International Journal of Molecular Sciences, 2022)

How the values were obtained:
Test in all cases: stopped-flow CO2 hydrase assay
Type in all cases: biochemical
CgNce103 = biological target: T1, CgNce103 (Nakaseomyces glabratus, UniProt Q6FTL6); conditions: read-out: KI (nM) ^a / CgNce103 (β-CA)
T1 construct: gene NCE103; recombinant, obtained in-house; beta-CA
T1 sequence (Q6FTL6 1-219): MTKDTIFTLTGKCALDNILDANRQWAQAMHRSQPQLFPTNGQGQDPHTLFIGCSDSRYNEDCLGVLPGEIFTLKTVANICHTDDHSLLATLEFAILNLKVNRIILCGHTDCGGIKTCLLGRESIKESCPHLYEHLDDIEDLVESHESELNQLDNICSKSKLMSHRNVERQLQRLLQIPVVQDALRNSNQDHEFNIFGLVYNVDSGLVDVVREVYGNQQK

hCA VII = biological target: T2, hCA VII (Homo sapiens, UniProt P43166); conditions: read-out: KI (nM) ^a / hCA VII (α-CA)
T2 construct: gene CA7; recombinant, obtained in-house; cytosolic alpha-CA
T2 sequence (P43166 whole entry): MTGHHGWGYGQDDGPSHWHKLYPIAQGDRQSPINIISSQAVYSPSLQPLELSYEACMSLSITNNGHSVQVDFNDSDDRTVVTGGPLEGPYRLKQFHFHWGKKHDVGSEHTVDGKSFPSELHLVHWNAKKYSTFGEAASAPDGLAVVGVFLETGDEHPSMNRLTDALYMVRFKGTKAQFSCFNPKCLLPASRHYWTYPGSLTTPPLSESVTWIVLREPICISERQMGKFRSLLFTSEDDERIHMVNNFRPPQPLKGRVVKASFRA
Source text: stopped-flow CO2 hydrase assay on hCA VII

hCA II = biological target: T3, hCA II (Homo sapiens, UniProt P00918); conditions: read-out: KI (nM) ^a / hCA II (α-CA)
T3 construct: gene CA2; recombinant, obtained in-house; cytosolic alpha-CA
Source text: stopped-flow CO2 hydrase assay on hCA II

MgCA = biological target: T4, MgCA (Malassezia globosa, UniProt A8Q1N3); conditions: […] TRIS pH […] Na2SO4, […] h preincubation at room temperature; read-out: KI (nM) ^a / MgCA (β-CA)
T4 construct: gene MGL_1814; recombinant, obtained in-house; beta-CA
T4 sequence (A8Q1N3 1-241): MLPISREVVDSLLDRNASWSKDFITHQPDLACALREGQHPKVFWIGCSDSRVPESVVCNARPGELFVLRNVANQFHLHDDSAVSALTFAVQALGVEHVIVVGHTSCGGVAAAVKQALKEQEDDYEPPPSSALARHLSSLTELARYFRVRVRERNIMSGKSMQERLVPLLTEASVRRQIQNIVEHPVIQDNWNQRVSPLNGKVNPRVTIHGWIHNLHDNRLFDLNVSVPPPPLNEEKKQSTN

hCA I = biological target: T5, hCA I (Homo sapiens, UniProt P00915); conditions: read-out: KI (nM) ^a / hCA I (α-CA)
T5 construct: gene CA1; recombinant, obtained in-house; cytosolic alpha-CA
T5 sequence (P00915 2-261): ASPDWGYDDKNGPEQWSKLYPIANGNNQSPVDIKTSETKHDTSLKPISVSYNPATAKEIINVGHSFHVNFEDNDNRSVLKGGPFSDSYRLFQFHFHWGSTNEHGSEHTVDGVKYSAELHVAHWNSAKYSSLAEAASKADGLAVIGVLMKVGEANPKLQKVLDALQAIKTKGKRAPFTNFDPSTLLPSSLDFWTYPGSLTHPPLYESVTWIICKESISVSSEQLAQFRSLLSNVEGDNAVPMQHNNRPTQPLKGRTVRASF
Source text: stopped-flow CO2 hydrase assay on hCA I

Compound	Ki (CgNce103)	Ki (hCA VII)	Ki (hCA II)	Ki (MgCA)	Ki (hCA I)
CCN1C(=O)CN(c2ccc(S(N)(=O)=O)cc2)C1=O [8a, 4-(3-Ethyl-2,4-dioxoimidazolidin-1-yl)benzenesulfonamide]	46 nM	30.8 nM	25.8 nM	68100 nM	262 nM
CCCCCCCN1C(=O)CN(c2ccc(S(N)(=O)=O)cc2)C1=O [8b, 4-(3-Heptyl-2,4-dioxoimidazolidin-1-yl)benzenesulfonamide]	83.7 nM	187 nM	56.4 nM	95700 nM	747 nM
C=CCN1C(=O)CN(c2ccc(S(N)(=O)=O)cc2)C1=O [8c, 4-(3-Allyl-2,4-dioxoimidazolidin-1-yl)benzenesulfonamide]	54.2 nM	19.5 nM	32.6 nM	66600 nM	234 nM
NS(=O)(=O)c1ccc(N2CC(=O)N(Cc3ccccc3)C2=O)cc1 [8d, 4-(3-Benzyl-2,4-dioxoimidazolidin-1-yl)benzenesulfonamide]	20.9 nM	5.3 nM	8.7 nM	64600 nM	837 nM
Cc1ccc(CN2C(=O)CN(c3ccc(S(N)(=O)=O)cc3)C2=O)cc1 [8e, 4-(3-(4-Methylbenzyl)-2,4-dioxoimidazolidin-1-yl)benzenesulfonamide]	18.3 nM	3 nM	32.7 nM	38900 nM	2930 nM
NS(=O)(=O)c1ccc(N2CC(=O)N(Cc3ccc(Cl)cc3)C2=O)cc1 [8f, 4-(3-(4-Chlorobenzyl)-2,4-dioxoimidazolidin-1-yl)benzenesulfonamide]	44.9 nM	15.3 nM	62.2 nM	41500 nM	8790 nM
N#Cc1ccc(CN2C(=O)CN(c3ccc(S(N)(=O)=O)cc3)C2=O)cc1 [8g, 4-(3-(4-Cyanobenzyl)-2,4-dioxoimidazolidin-1-yl)benzenesulfonamide]	38.4 nM	12 nM	7.2 nM	> 100000 nM	570 nM
NS(=O)(=O)c1ccc(N2CC(=O)N(Cc3ccc([N+](=O)[O-])cc3)C2=O)cc1 [8h, 4-(3-(4-Nitrobenzyl)-2,4-dioxoimidazolidin-1-yl)benzenesulfonamide]	6.6 nM	30.3 nM	6.1 nM	> 100000 nM	657 nM
NS(=O)(=O)c1ccc(N2CC(=O)N(Cc3ccc(C(F)(F)F)cc3)C2=O)cc1 [8i, 4-(2,4-Dioxo-3-(4-(trifluoromethyl)benzyl)imidazolidin-1-yl)benzenesulfonamide]	13.1 nM	14.3 nM	43.3 nM	59600 nM	601 nM
NS(=O)(=O)c1ccc(N2CC(=O)N(Cc3ccc(OC(F)(F)F)cc3)C2=O)cc1 [8j, 4-(2,4-Dioxo-3-(4-(trifluoromethoxy)benzyl)imidazolidin-1-yl)benzenesulfonamide]	5.9 nM	22.4 nM	16.4 nM	> 100000 nM	425 nM
Cc1cccc(CN2C(=O)CN(c3ccc(S(N)(=O)=O)cc3)C2=O)c1 [8k, 4-(3-(3-Methylbenzyl)-2,4-dioxoimidazolidin-1-yl)benzenesulfonamide]	8.4 nM	18.8 nM	58.3 nM	> 100000 nM	1080 nM
NS(=O)(=O)c1ccc(N2CC(=O)N(Cc3ccccc3F)C2=O)cc1 [8l, 4-(3-(2-Fluorobenzyl)-2,4-dioxoimidazolidin-1-yl)benzenesulfonamide]	48.8 nM	12.7 nM	1.2 nM	81100 nM	447 nM
NS(=O)(=O)c1ccc(N2CC(=O)N(Cc3ccc(Cl)c(Cl)c3)C2=O)cc1 [8m, 4-(3-(3,4-Dichlorobenzyl)-2,4-dioxoimidazolidin-1-yl)benzenesulfonamide]	67.9 nM	133 nM	85.6 nM	> 100000 nM	688 nM
NS(=O)(=O)c1ccc(N2CC(=O)N(Cc3c(F)c(F)c(F)c(F)c3F)C2=O)cc1 [8n, 4-(2,4-Dioxo-3-((perfluorophenyl)methyl)imidazolidin-1-yl)benzenesulfonamide]	35.7 nM	16.9 nM	91.2 nM	34900 nM	415 nM
NS(=O)(=O)c1ccc(N2CC(=O)NC2=O)cc1 [compound 6, 4-(2,4-Dioxoimidazolidin-1-yl)benzenesulfonamide]	29.5 nM	61.4 nM	18.1 nM	37200 nM	504 nM
